Reference: US20040126338A1, “Process of converting trans-lutein into cis-lutein and the uses thereof” (priority 2002, published 2004)
Values belong to the molecule of their own block, whether it stands above or below them.

Experiments:
[1] = Persistence of cis-isomers during heating or reflux, normal phase HPLC percent area; assay type: physicochemical
Experimental: (§1) The solvent solutions are refluxed in the following examples by placing the glass flask on a heating unit. A reflux column, which is cooled by non-recirculating cold water, is attached to the flask. The solution is then heated to the boiling point of the given liquid, except for propylene glycol, which boils at 187° C. The refluxing time varies slightly between solution samples. The refluxing times for each example are stated for each below. Samples are taken periodically to test the concentration of the cis-isomers, these are referred to as collected samples. Similarly, the oil solutions were heated in the following examples by placing the glass flask into a heated oil bath filled with mineral oil, which was stirred constantly, at 72° C.
Storing and centrifuging refers to the collected samples being placed into 12×75 mm glass culture tubes and wrapped with Parafilm® (Pechiney Plastic Packaging) and stored in a freezer until analysis. When prepped for analysis the collected samples are first warmed to room temperature and then the aliquot is centrifuged at 12,000 rpm for 5 minutes to remove trans-isomers crystals. The trans-isomer crystals are removed because the cis-isomers of lutein are known to be more soluble than the trans-isomers, which will allow them to remain in solution once formed. Next 1 ml of the centrifuged collected sample is placed into a High Performance Liquid Chromotography (HPLC) vial for analysis.
Analysis of the solutions formed from lutein and a liquid are analyzed using both normal phase HPLC and a spectophotometer. For the HPLC analysis, 1 ml of the collected sample of each solution is filtered through a 0.45 micron syringe filter into a HPLC sample vial. The sample is first dried using a nitrogen stream and then the remaining solids are dissolved in a 1 ml of a 65:35 hexane:ethylacetate mixture. […] In this way the percent area of the lutein cis-isomer peak is determined.

[2] = Cis-isomer content of supernatants versus pellets of the isopropanol solution; assay type: physicochemical
Experimental: The purpose of this preparation was to analyze the effect of isopropanol in solution with lutein, and analyze the effect of adding water to the lutein/isopropanol solution. In this example a solution was prepared by adding 2.51 g of dry cake lutein (lot 082405-08) to 50 ml isopropanol to a flask. The prepared solution was swirled and refluxed at 81° C. for 8 hours.
Samples were taken at 0, 1, 4, 6, and 8 hours to follow the isomerization. At 8 hours the sample was transferred to a 150 ml Erlenmeyer flask and placed in a freezer to cool. When partially cooled, aliquots were taken for precipitation and samples were diluted to 2:1, 1:1, and 1:2 ratios of water:isopropanol. An additional sample was prepared which contained only isopropanol solution. The samples were vortexed and centrifuged. Supernatant and pellets were collected and stored in a 1.5 ml microfuge tube until analysis.

[3] = UV absorption spectra of cis-lutein and trans-lutein; assay type: physicochemical
Excerpt: FIG. 5 is a graph of the trans-lutein spectrum.
FIG. 6 is a graph of the cis-lutein spectrum.

[4] = cited from earlier work
[5] = tested on: age-related macular degeneration; conditions: consumption of lutein and zeaxanthin; cited from earlier work
[6] = Room temperature saturation limit and solubility on heating of lutein dry cake in solvents; assay type: physicochemical; conditions: for Room temp. sataturation limit (%): room temperature
Experimental: The purpose of this preparation is to analyze the effect of heat on a solution of lutein in four solvents, hexane, ethanol, isopropanol, and acetone, to determine whether isomerization from trans-isomers of lutein to various cis-isomers occurs, and what concentration of each isomer is formed. The solutions were prepared using 100 ml of the above stated solvents to dissolve varying weights of lutein dry cake. Initial solubility limits ere tested by adding a small amount of dry cake and swirling the flask briefly. If the sample appeared saturated, it was centrifuged to verify that a pellet of undissolved material was formed. If the solution was not saturated, additional dry cake was added until saturation was reached. Once the approximate solubility at room temperature was determined for each solvent, excess dry cake was added for the increased solubility that occurs through heating and isomerization, in order to maintain saturation during the entire experiment.

[7] = Observed solubility of lutein dry cake in oils; assay type: physicochemical
Experimental: Using an analytical balance, the preparation of solution for the following examples for cis-isomerization includes placing weighed dry cake lutein into a flask and adding one of the above liquids to the flask to form the solution. The solution is first hand swirled and its solubility is observed. Following a baseline sample, which is taken at the 0 hour mark, the prepared lutein solution is placed on a heat source and refluxed for a period of time ranging between 0-120 hours.
The purpose of this preparation is to analyze the effect of heat on a solution of lutein in the above stated oils and determine whether isomerization from trans-lutein to various cis-isomers occurs, and the concentration of each isomer that is formed. The oils used in this example were corn oil, which was used as a control, corn mint oil, spearmint oil, peppermint oil, tea tree oil, and bay oil. […] The solutions were made by adding 20 ml of oil to the weighed lutein. The sample heated in an oil bath. A baseline 2 ml sample was taken and additional 2 ml samples taken at 1, 4, 8, 24, and 48 hours.
(§2) In this preparation a solution was made using 2 g of lutein dry cake and 20 ml of oil. The solution was heated in an oil bath. Samples (2 ml) were taken at 0, 1, 4, 6.5, 24, and 48 hours. As before, samples were analyzed qualitatively using normal phase HPLC and spectophotometer. However, quantitative analysis was also performed, by taking 1 ml of the HEAT (hexane, ethanol, acetone and toluene) solution previously prepared, diluting it to 25 ml in ethanol, and determining the absorbance on an UV-Vis absorption spectrophotometer. This type of analysis is often useful for quantitative measurements. All of the thyme oil samples required a 1:20 dilution of the ethanol solution before reading on the UV-Vis.
Samples containing 25% solutions were prepared using 2.5 g dry cake lutein and 10 ml of liquid. The liquid used in solution was from the group consisting of corn oil, diH2O, or Spectrum brand white thyme oil. The “dry” sample contained 2.5 g dry cake lutein and was preformed without the addition of any liquid. […]

[8] = Carotenoid content of lutein heated in oils at 72° C., UV-Vis absorbance at 446 nm; assay type: physicochemical
Experimental: as §1
as §2, with “Samples (2 ml) were taken at 0, 1, 4, 6.5, 24, and 48 hours.” left out

[9] = among carotenoids; cited from earlier work
prostate cancer = conditions: in vivo; cited from earlier work

- stability ([1]; Example 4 thyme oils at 72° C., 4-48 hours): appears to be stable
Molecule: CC(C=CC=C(C)C=CC1=C(C)CC(O)CC1(C)C)=CC=CC=C(C)C=CC=C(C)C=CC1C(C)=CC(O)CC1(C)C (single isomer, unassigned) [13,13′ cis-isomer, 13,13′ cis-lutein]
- stability for extended periods ([1]; Example 3 oils at 72° C., concentration declines after 24 hour sample): did not appear to be highly stable for extended periods

Molecule: cis-lutein [cis-isomers of lutein]
- stability of the cis-isomer formed ([1]; propylene glycol reflux (75° C.), content decreased after four hours): not stable
- solubility compared with trans-isomers [2]: higher than trans-isomers
- ultraviolet light (UV) absorption compared with trans-isomer lutein [3]: higher
- stability upon reflux in ethanol ([4]; reflux in ethanol): easily reverted to the more thermodynamically stable trans-isomers

Molecule: CC1=C(/C=C/C(C)=C/C=C/C(C)=C/C=C/C=C(C)/C=C/C=C(C)/C=C/C2=C(C)C[C@@H](O)CC2(C)C)C(C)(C)C[C@H](O)C1 [Zeaxanithin, zeaxanthin]
- reduction in age-related macular degeneration [5]: 57%

- Room temp. sataturation limit (%) ([6]; in acetone): ˜0.45%
- Room temp. sataturation limit (%) ([6]; in ethanol): ˜0.3%
- Room temp. sataturation limit (%) ([6]; in hexane): <1%
- solubility when the solution was heated ([6]; in isopropanol, reflux): increased dramatically
- Room temp. sataturation limit (%) ([6]; in isopropanol): ˜0.2%
- solubility in corn oil compared with thyme oils ([7]; Example 4, 2 g dry cake in 20 ml oil): least soluble in corn oil
- carotenoid concentration observed ([8]; thyme oil, predicted concentration 10%): 7.18%
Molecule: CC1=C[C@H](O)CC(C)(C)[C@H]1/C=C/C(C)=C/C=C/C(C)=C/C=C/C=C(C)/C=C/C=C(C)/C=C/C1=C(C)C[C@@H](O)CC1(C)C [lutein dry cake, lutein]

Molecule: CC1=C[C@H](O)CC(C)(C)[C@H]1/C=C/C(C)=C/C=C/C(C)=C/C=C/C=C(C)/C=C/C=C(C)/C=C/C1=C(C)C[C@@H](O)CC1(C)C (single isomer, unassigned) [trans-isomers of lutein, trans-lutein]
- stability in crystalline forms ([4]; crystalline forms): stable in crystalline forms

Molecule: CC(C)=CCC/C(C)=C/C=C/C(C)=C/C=C/C(C)=C/C=C/C=C(C)/C=C/C=C(C)/C=C/C=C(\C)CCC=C(C)C [lycopene]
- oxygen quenching [9]: best carotenoid oxygen quencher
- reducing the risk of prostate cancer (prostate cancer): active in reducing the risk of prostate cancer

- solubility when heated in white thyme oil ([7]; Example 5, 25% w/v, Spectrum white thyme oil): good solubility
- time for which lutein was stable (carotenoid content) ([8]; in thyme oil): about 6.5 hours
Molecule: CC1=C[C@H](O)CC(C)(C)[C@H]1/C=C/C(C)=C/C=C/C(C)=C/C=C/C=C(C)/C=C/C=C(C)/C=C/C1=C(C)C[C@@H](O)CC1(C)C [lutein]
- solubility in corn oil compared with the other oils ([7]; Example 3, corn mint, spearmint, peppermint, tea tree and bay oil, 3 mg or 4 mg in 20 ml): less soluble in corn oil than in the other oils
- reduction in age-related macular degeneration [5]: 57%
